Assay results published in patent US7863416B2, “Nociceptin-based analgesics” (Synvax, Inc., priority 2001, dated 2011).
Like-named read-outs stand apart in the source and are kept apart here. Numbered stars: 1 amine (or outer) side, 2 acyl side, 3 side chain; on linkers, the order of the positions; unused ones are H or OH. Square brackets hold non-standard residues; d marks the D form. Peptide text beside a SMILES is read from it. * marks the point of attachment. X1 = O=C([C@H](CCc1ccc([N+](=O)[O-])cc1[N+](=O)[O-])N[*:1])[*:2]; Phe(4-CH2SO3H) = N[C@@H](Cc1ccc(CS(=O)(=O)O)cc1)C(=O)O; Phe(4-NO2) = N[C@@H](Cc1ccc([N+](=O)[O-])cc1)C(=O)O; Phe(4-CH2NH2) = NCc1ccc(C[C@H](N)C(=O)O)cc1; Tyr(3-Cl) = N[C@@H](Cc1ccc(O)c(Cl)c1)C(=O)O; Phe(4-NH2) = Nc1ccc(C[C@H](N)C(=O)O)cc1; Phe(4-F) = N[C@@H](Cc1ccc(F)cc1)C(=O)O; Dmt = Cc1cc(O)cc(C)c1C[C@H](N)C(=O)O; Tyr(BN∗,3-Cl) = not defined here; Dab = NCC[C@H](N)C(=O)O; Dap = NC[C@H](N)C(=O)O; Hexanoyl = CCCCCC(=O)*; Pentanoyl = CCCCC(=O)*; Ahx = NCCCCCC(=O)O

Tests used:
[1] = In vivo test for analgesic activity and potentiation of morphine analgesia
human ORL1 [2] = target: T1, human ORL1 (Homo sapiens, UniProt P41146); experiment: Antagonism of nociceptin-stimulated [35S]GTPγS binding (inhibition, Schild analysis); assay type: biochemical
T1 construct: expressed in transfected cells; host or cells: CHO cells (G418-selected)

human ORL1 [3] = target: T1, human ORL1; experiment: Stimulation of [35S]GTPγS binding in membranes of CHO cells transfected with human ORL-1; assay type: biochemical; details: for [35S]GTPγS Binding Percent Stimulation: relative to nociceptin; for agonist/antagonist character at ORL1: in words; for EC50 ± SEM, stimulation of [35S]GTPγS binding: Table 6; for Emax: read-out: % Stimulation ± SEM of [35S]GTPγS binding
Method: First, CHO cells transfected with human ORL-1 are scraped from tissue culture dishes into 20 mM HEPES, 1 mM EDTA, and then centrifuged at 500×g for 10 minutes. The cells are then re-suspended in this buffer and homogenized using a Polytron Homogenizer.
The cellular homogenate is next centrifuged at 20,000×g for 20 minutes. Following this, the resulting pellet is re-suspended in a buffer containing 20 mM HEPES, 10 mM MgCl2, and 100 mM NaCl, having a resulting pH of 7.4. The suspension is then re-centrifuged at 20,000×g and suspended once more in the above-listed buffer. The pellet may be frozen at −70° C. prior to the final centrifugation. For the binding assay, membranes (10-20 μg protein) are incubated with [^35S]GTPγγS (50 pM), GDP (usually 10 μM), and the desired compound. The total volume of the mixture is 1 ml, which is incubated for 60 min at 25° C.
Following incubation, samples are filtered over glass fiber filters and counted. […]
In these [^35S]GTPγS assays, binding was conducted as described above. EC50 values and percent stimulation were determined using the program Prism.

human ORL1 [4] = target: T1, human ORL1; experiment: [3H]nociceptin binding to membranes of CHO cells transfected with human ORL1; details: for Hill Coefficient: Table 5
mice [5] = experiment: Tail flick assay, peptide alone, intracerebroventricular injection
mice [6] = experiment: Tail flick assay, peptide combined with morphine and/or N/OFQ (morphine-induced analgesia); assay type: in vivo
Method: The modified Boniferroni Test was used for these planned comparisons (p value was set at P<0.036). Doses were determined based on the potency of the compounds tested.
The antagonist was next assayed for the ability to reverse the inhibition of morphine-induced analgesia. In this assay, the control received morphine alone, while test animals received morphine +3 nmol of the antagonist, morphine +10 nmol of the antagonist. […] For each of these animals, response was measured at 5, 10, and 20 minutes after intracerebroventricular injection.
The agonist VII-87-B was further investigated by evaluating its ability to reverse morphine-induced analgesia. In this assay, the control animal received 10 nmols of morphine alone, while test animals received morphine +0.1 nmol of the agonist, morphine +1.0 nmol of the agonist, or morphine +10.0 nmol of the agonist. For each of these animals, response was measured at 5, 10, and 20 minutes after intracerebroventricular injection.
The agonist VII-39-D was then further investigated by evaluating its ability to reverse morphine-induced analgesia. In this assay, the control animal received 10 nmols of morphine alone, while test animals received morphine +0.1 nmol of the agonist, morphine +1.0 nmol of the agonist, or morphine +10.0 nmol of the agonist. For each of these animals, response was measured at 5, 10, and 20 minutes after intracerebroventricular injection.

T1 sequence (P41146 whole entry): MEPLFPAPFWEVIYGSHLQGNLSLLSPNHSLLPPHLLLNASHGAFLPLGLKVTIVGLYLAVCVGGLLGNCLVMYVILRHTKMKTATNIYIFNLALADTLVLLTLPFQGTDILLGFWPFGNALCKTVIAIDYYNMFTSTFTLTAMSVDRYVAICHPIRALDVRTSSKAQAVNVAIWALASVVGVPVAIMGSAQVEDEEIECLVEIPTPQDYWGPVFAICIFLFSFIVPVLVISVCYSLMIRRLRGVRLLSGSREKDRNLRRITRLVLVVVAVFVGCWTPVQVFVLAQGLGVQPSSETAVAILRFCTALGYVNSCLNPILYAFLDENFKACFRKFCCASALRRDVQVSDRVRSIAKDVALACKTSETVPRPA

Row | Compound | EC50 ± SEM, stimulation of [35S]GTPγS binding (human ORL1 [3]) | Emax (human ORL1 [3]) [%] | Hill Coefficient (human ORL1 [4]) | further results
1 | CCCCCC(=O)N[C@@H](CCCNC(=N)N)C(=O)N[C@@H](Cc1ccc(O)cc1)C(=O)N[C@@H](Cc1ccc(O)cc1)C(=O)N[C@@H](CCCNC(=N)N)C(=O)N[C@@H](Cc1c[nH]c2ccccc12)C(=O)N[C@@H](CCCNC(=N)N)C(N)=O [IV-17-C, Hexanoyl-RYYRWR-NH2] (Hexanoyl-RYYRWR-NH2) | – | – | – | analgesic activity and potentiation of morphine analgesia in vivo [1]: no measurable in vivo activity; potency as antagonist relative to N^1-Phe-nociceptin (1-13)NH2 (human ORL1 [2]; FIG. 2): at least 10 times; stimulation of [35S]GTPγS binding remaining (human ORL1 [2]; at 1 and 10 μM, with 10 nM nociceptin): 20%; [35S]GTPγS Binding Percent Stimulation (human ORL1 [3]; Table 1): 18%; agonist/antagonist character at ORL1 (human ORL1 [3]): very low efficacy compound; IC50 (human ORL1 [4]): 2.6 nM
2 | CCCCC(=O)N[C@@H](CCCNC(=N)N)C(=O)N[C@@H](Cc1ccc(O)cc1)C(=O)N[C@@H](Cc1ccc(O)cc1)C(=O)N[C@@H](CCCNC(=N)N)C(=O)N[C@@H](Cc1c[nH]c2ccccc12)C(=O)N[C@@H](CCCNC(=N)N)C(N)=O [VII-7-B, Pentanoyl-Arg-Tyr-Tyr-Arg-Trp-Arg-NH2] (Pentanoyl-RYYRWR-NH2) | FLAT | < 20 | 0.8 | analgesic effect (% antinociception) (mice [5]; 10.0 and 30.0 nmol icv, 10 and 20 minutes post-injection): showed analgesic properties; shift of nociceptin dose response curve (human ORL1 [2]; FIG. 9): dose-dependent parallel shift; pA2, Schild analysis (human ORL1 [2]; nociceptin dose response curve): 8.99±0.05; slope, Schild analysis (human ORL1 [2]; nociceptin dose response curve): −1.02; agonist/antagonist character at ORL1 (human ORL1 [3]): very potent antagonist; effect on morphine-induced analgesia (mice [6]; 10 nmol alone or with N/OFQ, 5 minutes post-injection): reduction in morphine-induced analgesia; effect on nociceptin action on morphine analgesia (mice [6]; 10 and 20 minutes post injection): did not alter the effects of nociceptin; reversal of nociceptin's inhibition of morphine-induced analgesia (mice [6]; morphine + nociceptin + 3 or 10 nmol antagonist icv, FIG. 11): did not reverse the inhibition of morphine-induced analgesia
3 | CC(=O)N[C@@H](CCCNC(=N)N)C(=O)N[C@@H](Cc1ccc(O)cc1)C(=O)N[C@@H](Cc1ccc(O)cc1)C(=O)N[C@@H](CCCNC(=N)N)C(=O)N[C@@H](Cc1c[nH]c2ccccc12)C(=O)NCCCCCC(N)=O [VII-57-C, Ac-Arg-Tyr-Tyr-Arg-Trp-ε-aminocaproyl-NH2] (Ac-RYYRW[Ahx]-NH2) | – | 37.4 ± 2.64 | 0.95 | –
4 | CC(=O)N[C@@H](CCCNC(=N)N)C(=O)N[C@@H](Cc1ccc(O)cc1)C(=O)N[C@@H](Cc1ccc(F)cc1)C(=O)N[C@@H](CCCNC(=N)N)C(=O)N[C@@H](Cc1c[nH]c2ccccc12)C(=O)N[C@@H](CCCNC(=N)N)C(N)=O [VII-61-B, Ac-Arg-Tyr-Phe(4-F)-Arg-Trp-Arg-NH2] (Ac-RY[Phe(4-F)]RWR-NH2) | – | 70.4 ± 1.98 | 1.05 | Ki (human ORL1 [4]): 0.05 nM
5 | CC(=O)N[C@@H](CCCNC(=N)N)C(=O)N[C@@H](Cc1ccc(O)cc1)C(=O)N[C@@H](Cc1ccc([N+](=O)[O-])cc1)C(=O)N[C@@H](CCCNC(=N)N)C(=O)N[C@@H](Cc1c[nH]c2ccccc12)C(=O)N[C@@H](CCCNC(=N)N)C(N)=O [VII-63-B, Ac-Arg-Tyr-Phe(4-NO2)-Arg-Trp-Arg-NH2] (Ac-RY[Phe(4-NO2)]RWR-NH2) | – | 43.2 ± 0.59 | 1.01 | –
6 | CC(=O)N[C@@H](CN)C(=O)N[C@@H](Cc1ccc(O)cc1)C(=O)N[C@@H](Cc1ccc(O)cc1)C(=O)N[C@@H](CCCNC(=N)N)C(=O)N[C@@H](Cc1c[nH]c2ccccc12)C(=O)N[C@@H](CCCNC(=N)N)C(N)=O [VII-65-F, Ac-Dap-Tyr-Tyr-Arg-Trp-Arg-NH2] (Ac-[Dap]YYRWR-NH2) | FLAT | 13.7 ± 1.18 | 1.1 | –
7 | CC(=O)N[C@@H](CCN)C(=O)N[C@@H](Cc1ccc(O)cc1)C(=O)N[C@@H](Cc1ccc(O)cc1)C(=O)N[C@@H](CCCNC(=N)N)C(=O)N[C@@H](Cc1c[nH]c2ccccc12)C(=O)N[C@@H](CCCNC(=N)N)C(N)=O [VII-67-A, Ac-Dab-Tyr-Tyr-Arg-Trp-Arg-NH2] (Ac-[Dab]YYRWR-NH2) | FLAT | < 20 | 1.07 | –
8 | CC(=O)N[C@@H](CCCNC(=N)N)C(=O)N[C@@H](Cc1ccc(O)cc1)C(=O)N[C@@H](CCc1ccc([N+](=O)[O-])cc1[N+](=O)[O-])C(=O)N[C@@H](CCCNC(=N)N)C(=O)N[C@@H](Cc1c[nH]c2ccccc12)C(=O)N[C@@H](CCCNC(=N)N)C(N)=O [VII-71-B, Ac-Arg-Tyr-hPhe(2,4-di-NO2)-Arg-Trp-Arg-NH2] (Ac-RY[X1]RWR-NH2) | – | 33.6 ± 16.8 | 0.88 | –
9 | CC(=O)N[C@@H](CCCNC(=N)N)C(=O)N[C@@H](Cc1ccc(O)cc1)C(=O)N[C@@H](Cc1c(C)cc(O)cc1C)C(=O)N[C@@H](CCCNC(=N)N)C(=O)N[C@@H](Cc1c[nH]c2ccccc12)C(=O)N[C@@H](CCCNC(=N)N)C(N)=O [VII-73-A, Ac-Arg-Tyr-Tyr(2,6-di-Me)-Arg-Trp-Arg-NH2] (Ac-RY[Dmt]RWR-NH2) | – | 52.7 ± 0.175 | 0.95 | –
10 | CC(=O)N[C@@H](CCCNC(=N)N)C(=O)N[C@@H](Cc1ccc(O)cc1)C(=O)N[C@@H](Cc1ccc(CS(=O)(=O)O)cc1)C(=O)N[C@@H](CCCNC(=N)N)C(=O)N[C@@H](Cc1c[nH]c2ccccc12)C(=O)N[C@@H](CCCNC(=N)N)C(N)=O [VII-75-B, Ac-Arg-Tyr-Phe(4-CH2SO3H)-Arg-Trp-Arg-NH2] (Ac-RY[Phe(4-CH2SO3H)]RWR-NH2) | FLAT | < 20 | 0.75 | –
11 | CC(=O)Nc1ccc(C[C@H](NC(=O)[C@H](Cc2ccc(O)cc2)NC(=O)[C@H](CCCNC(=N)N)NC(C)=O)C(=O)N[C@@H](CCCNC(=N)N)C(=O)N[C@@H](Cc2c[nH]c3ccccc23)C(=O)N[C@@H](CCCNC(=N)N)C(N)=O)cc1 [VII-77-A, Ac-Arg-Tyr-Phe(4-NHAc)-Arg-Trp-Arg-NH2] (Ac-RY[Phe(4-NH2)](Ac)RWR-NH2) | – | 19 ± 6.92 | 0.62 | –
12 | CC(=O)N[C@@H](CCCNC(=N)N)C(=O)N[C@@H](Cc1ccc(O)cc1)C(=O)N[C@@H](Cc1ccc(CN)cc1)C(=O)N[C@@H](CCCNC(=N)N)C(=O)N[C@@H](Cc1c[nH]c2ccccc12)C(=O)N[C@@H](CCCNC(=N)N)C(N)=O [VII-79-A, Ac-Arg-Tyr-Phe(4-CH2NH2)-Arg-Trp-Arg-NH2] (Ac-RY[Phe(4-CH2NH2)]RWR-NH2) | FLAT | < 20 | 0.89 | –
13 | CC(=O)N[C@@H](CCCNC(=N)N)C(=O)N[C@@H](Cc1ccc(O)c(Cl)c1)C(=O)N[C@@H](Cc1ccc(O)cc1)C(=O)N[C@@H](CCCNC(=N)N)C(=O)N[C@@H](Cc1c[nH]c2ccccc12)C(=O)N[C@@H](CCCNC(=N)N)C(N)=O [VII-87-B, Ac-Arg-Tyr(3-Cl)-Tyr-Arg-Trp-Arg-NH2] (Ac-R[Tyr(3-Cl)]YRWR-NH2) | – | 72 | – | effect on nociception (% antinociception) (mice [5]; 10 nmol icv, 5, 10 and 20 minutes post-injection): induced pro-nociception; agonist/antagonist character at ORL1 (human ORL1 [3]): agonist; reversal of morphine-induced analgesia (mice [6]; morphine 10 nmol + 0.1, 1.0, 10.0 nmol agonist icv, at 10 and 20 minutes with 10 nmol): dose-dependent reversal of morphine-induced analgesia
14 | Ac-Arg-Tyr(BN*, 3-Cl)-Tyr-Arg-Trp-Arg-NH2 (Ac-R[Tyr(BN∗,3-Cl)]YRWR-NH2; reading uncertain; also: printed as Ac-Arg-Tyr(BN*, 3-Cl)-Tyr-Arg-Trp-Arg-NH2) [VII-39-D] | – | – | 1.03 | effect on nociception (% antinociception) (mice [5]; 0.1, 1.0 or 10.0 nmol icv, 5, 10 and 20 minutes post-injection): did not induce anti- or pro-nociception; agonist/antagonist character at ORL1 (human ORL1 [3]): full agonist; effect on morphine-induced analgesia (mice [6]; morphine 10 nmol + 1.0 and 10 nmol agonist icv, 5, 10 and 20 minutes): attenuation of morphine-induced analgesia
15 | Ac-RY(D)YR(D)WRNH2 [IV-12-B] | – | – | – | EC50 (human ORL1 [3]; Table 1, read-out: [35S]GTPγS Binding EC50): > 10 µM; [35S]GTPγS Binding Percent Stimulation (human ORL1 [3]; Table 1): <10%; IC50 (human ORL1 [4]; read-out: [3H]nociceptin Binding IC50, Table 1): 1140 nM
16 | β-Nva-Arg-Tyr-Tyr-Arg-Trp-Arg-NH2 (βNva-RYYRWR-NH2) [VII-2-A] | FLAT | – | 1.0 | –
